In ChEMBL document CHEMBL1123991 (J Med Chem, 1988):

Key:
D(2) dopamine receptor = D(2) dopamine receptor (Rattus norvegicus, UniProt P61169); test: Inhibition of 0.1 nM of [125I]- (S)-N-(1-Ethyl-pyrrolidin-2-ylmethyl)-5-iodo-2-methoxy-benzamide binding in striatal homogenates of rat brain; format: tissue-based
Rattus norvegicus [1] = test: Regional uptake of [125I]- (S)-N-(1-Ethyl-pyrrolidin-2-ylmethyl)-5-iodo-2-methoxy-benzamide in rat striatum 60 min after intravenous administration; format: functional, organism-based
[2] = Ratio of uptake of [125I]- (S)-N-(1-Ethyl-pyrrolidin-2-ylmethyl)-5-iodo-2-methoxy-benzamide in striatum:frontal cortex; 4.7:1; format: functional
[3] = Ratio of uptake of [125I]- (S)-N-(1-Ethyl-pyrrolidin-2-ylmethyl)-5-iodo-2-methoxy-benzamide in striatum:striatum; 1.0:1; format: functional
Rattus norvegicus [4] = test: Regional uptake of [125I]- (S)-N-(1-Ethyl-pyrrolidin-2-ylmethyl)-5-iodo-2-methoxy-benzamide in rat cerebellum 60 min after intravenous administration; format: functional, organism-based
[5] = Ratio of uptake of [125I]- (S)-N-(1-Ethyl-pyrrolidin-2-ylmethyl)-5-iodo-2-methoxy-benzamide in striatum:cerebellum; 7.2:1; format: functional
Rattus norvegicus [6] = test: Regional uptake of [125I]- (S)-N-(1-Ethyl-pyrrolidin-2-ylmethyl)-5-iodo-2-methoxy-benzamide in rat frontal cortex 60 min after intravenous administration; format: functional, organism-based

Chain of D(2) dopamine receptor (P61169 whole entry): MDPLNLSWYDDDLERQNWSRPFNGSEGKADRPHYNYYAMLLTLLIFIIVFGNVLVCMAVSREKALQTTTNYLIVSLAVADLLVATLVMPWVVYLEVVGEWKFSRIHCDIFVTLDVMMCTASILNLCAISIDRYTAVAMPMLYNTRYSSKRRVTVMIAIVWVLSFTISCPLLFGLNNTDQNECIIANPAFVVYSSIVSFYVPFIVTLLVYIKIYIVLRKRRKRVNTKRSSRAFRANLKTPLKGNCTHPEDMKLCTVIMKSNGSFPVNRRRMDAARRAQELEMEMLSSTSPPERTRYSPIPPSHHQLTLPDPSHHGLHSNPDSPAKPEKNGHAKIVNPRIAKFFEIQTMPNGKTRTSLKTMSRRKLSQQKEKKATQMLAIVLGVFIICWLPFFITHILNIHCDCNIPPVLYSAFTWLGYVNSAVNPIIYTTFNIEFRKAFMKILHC

Compound	IC50 (D(2) dopamine receptor)	Radioactivity (Rattus norvegicus [1])	Ratio [2]	Ratio [3]	Radioactivity (Rattus norvegicus [4])	Ratio [5]	Radioactivity (Rattus norvegicus [6])
CCN1CCC[C@@H]1CNC(=O)c1cc(I)ccc1OC	0.113 µM	56.2 nCi g-1	4.7	1	7.8 nCi g-1	7.2	11.9 nCi g-1
CCN1CCC[C@H]1CNC(=O)c1cc(I)ccc1OC [IODOPRIDE]	0.0015 µM						
